Measurements published in patent US20250136997A1, “COMPOSITIONS FOR SEQUESTERING ISOAMYL AMINE AND METHODS OF USE THEREFOR” (University of Louisville Research Foundation, Inc., priority 2023, published 2025).

What was measured:
[1] = system: IAA binding oligo of the S100A8 promoter (hairpin); experiment: Nucleic acid unwinding assay (helicase); type: biochemical
Description: Nucleic acid unwinding assay. Helicase reactions were carried out in triplicate in 96-well plates. To prepare DNA substrate, 20 μM single strand DNA (WT: 5′-Cy3-[…]-BHQ1-3′ (SEQ ID NO: 5); Mutant: 5′-Cy3-[…]-BHQ1-3′ (SEQ ID NO: 6; Eurofins Genomics LLC, KY) were denatured at 95° C. for 5 minutes in the reaction buffer (25 mM Tris HCl pH 7.5, 100 mM NaCl, 15 mM MgCl2, 1 mM DTT, 0.1 mg/ml BSA) and cooled slowly to room temperature before add IAA (100 nM) and/or helicase ([…]). After ATP (2 mM) was added to initiate the helicase activity, the fluorescence value was recorded using a microplate reader with an excitation wavelength of 550 and an emission wavelength of 570. BHQ: black-hole quencher.

promoter of S100A8 = experiment: Chromatin immunoprecipitation assay with biotinylated IAA; type: binding, mouse; details: BV2 genomic DNA
Description: Chromatin immunoprecipitation assay. To identify the interaction of IAA and promoter of S100A8, 1 mg of IAA was labeled with biotin using the EZ-Link NHS-PEG4 Biotinylation kit (Thermo Fisher Sci., #21455) and excess biotin was removed using a desalting column. Biotinylated IAA was incubated with microglia BV2 cells for 3 h at 37° C. following 37% formaldehyde (final 1%) in 1 ml PBS for one more hour for cross-linking. The cell lysate was collected in 1 ml of RIPA buffer and sonication was used to shear the chromatin into 0.5˜1 kb fragment. Streptavidin Dynabeads ([…]) were added to the DNA samples for 1 h at room temperature. PBS replaced the DNA and was incubated with the beads as the control to exclude non-specific interactions. After washing beads with PBS, biotinylated IAA was eluted from the beads with the biotin (4 mg/ml) in 25mMTris-HCL containing 0.3MNaCl (pH 8.5) as the elution buffer at room temperature for 1 h or 95° C. for 5 min. The supernatant was collected and the DNA was purified with acetic acid (2%, v/v) and dissolved into […] of H2O. Two ml of DNA was used in quantitative PCR reactions using the primers of S100A8-ChIP in Table 3.

[2] = Electroencephalography (EEG) recording in mice; type: in vivo, mouse
Description: Electroencephalography (EEG) recording in mice. Groups of mice were anesthetized by peritoneal administration of ketamine (90 mg/kg) and xylazine (10 mg/kg) mixture. Mice that were not responsive to nociceptive stimuli were consider anesthetized and were administered the analgesic buprenorphine (0.1 mg/kg). The fur of the skull area was removed, placed on surgical bench and skin area were cleaned with betadine and 70% ethyl alcohol. The midline scalp skin was lifted using forceps and an incision made from the frontal cranial bone to the back of the parietal cranial bones. The skin was push aside and cleaned with betadine using cotton swabs. The skull was cleaned and marked for placement of electrodes. Two craniotomies 0.25-0.5 mm in diameter on the side of each hemisphere were established a 3 mm distance from the midline vertical fissure in the frontal and occipital regions; a hand-held drill (Kopf) with matching drill bits (0.5 mm) was used for the craniotomies. Four electrodes were placed in appropriate skull holes over the frontal cortex (FC) and occipital cortex (OC). A ground/reference electrode was also implanted in the most anterior region of cerebellum. Thus, two independent EEG channels were created for FC and OC on each side of the hemisphere. […]

[3] = Single-strand gel shift (SSGS) assay; type: binding; details: oligos (2 μM) incubated with IAA (10 μM), 15% PAGE
Description: Single-strand gel shift (SSGS) assay. To identify the metabolite binding site of S100A8, we synthesized a series of oligonucleotides (oligos) (Eurofins Genomics LLC, KY) specific to the response putative IAA binding site at the promoter region of S100A8. The oligos ([…]) were incubated with […] of IAA at 37° C. for 30 minutes following electrophoresis on a 15% native PAGE without SDS in 0.5×TBE buffer. The oligos were stained with ethidium bromide ([…]) and visualized under ultraviolet (UV) light.
Given induction of bacterial metabolite IAA causes the degeneration of microglia by elevation of S100A8 at both the transcription and protein level, we hypothesized that IAA might directly target the promoter of S100A8 and regulate the expression of S100A8. Studying the interaction of metabolites, particularly small molecules, with nucleic acid is challenging due to a lack of appropriate tags for the metabolites. Because of this challenge, we developed a strategy raising the possibility to investigate the interaction of small molecules and nucleic acid.
To test our hypothesis, we first synthesized short single-DNA strains (around 60 mer length each) whose sequences spanned the promoter of S100A8 (FIG. 13A and Table 5). The site and sequence of the promoter and transcription start site (TSS) were determined according to the entire mRNA (Accession #NC_000069.7 (90,576,378 . . . 90,577,341)) and genomic sequence (Accession #L76381) from the NCBI nucleic acid database (FIG. 13A). These DNA oligos (2 μM) were incubated with IAA (10 μM) following native PAGE analysis (FIG. 4A). […] To define the accurate binding site of IAA, we synthesized 10 mer length DNA oligos covering the sequence of S100p1 (Table 5). Unfortunately, the 10 mer length oligo lost the conformational mobility shift in PAGE (FIG. 13C). We then tested the mobility shift with 20 mer oligos. […]

## CC(C)CCN [IAA, isoamylamine]
[1]; WT Cy3/BHQ1 oligo, with helicase
  activity of helicase unwinding of the self-complementary binding sequence: enhanced
[1]; mutant Cy3/BHQ1 oligo
  unwinding of mutant sequence: attenuated
Promoter of S100A8
  interaction with promoter of S100A8 genomic DNA (ChIP): demonstrated
[2]; IAA mice vs control, phage to aged mice
  EEG rhythms coherence: incoherence
[2]; IAA-treated young mice, phage-treated aged mice
  distributions of DSA (bilateral symmetry): asymmetric bilaterally

## S100p1-G: CTGTGGGCAG CTGGCCAAGC (SEQ ID NO: 8), S100A8 promoter −57 . . . −38 (DNA CTGTGGGCAGCTGGCCAAGC; chemistry not given here)
[3]
  mobility shift on native PAGE after incubation with IAA: displayed a shift
